The text below walks through data of patent US20100130549A1, “PSYCHOTROPIC COMPOUNDS, COMPOSITIONS AND METHODS OF USE” (priority 2007, published 2010).

SMILES strings stand for the structures.

The test system of series [1] is BALB/c mice. Nature of the series: Open field test.
Another series has as its system BALBc male mice. Put plainly: Hot plate test. It counts as in vivo. The conditions noted are these: 10 mg/kg orally (sertraline equimolar); vs vehicle treated control. From the text:
The hot-plate test is widely used to measure pain sensation. The latency in response to heat of mice and rats feet is based on the method described by Eddy et al., Synthetic analgesics. II. […] The method is based on placing an animal on heated (52-56 C) surface and measuring the time to response (raising paw, licking of the paw, jumping or running.
The animals were followed for 6 hr.
A general note: In hot-plate and tail-flick tests a longer latency is read as antinociception.

Series [2] concerns BALB/c mice. Nature of the series: Rotor rod test (motor activity). The series is classed as in vivo. The conditions noted are these: 10 mg/kg p.o., 90 min after administration; vs controls. The procedure: The test was performed 90 min after oral administration of the compounds. […] The rotor rod test involves placing the mouse on an elevated rotating bar. In this test, the mouse is placed on the bar such that it is facing the direction opposite to the rotation of the rod. The time lag to fall is determined.

Another series has as its system ICR male mice. Nature of the series: Subchronic ip administration (toxicity). It counts as in vivo. The source says:
[…]. Except for this local irritation no other toxicity was noted.
[…]. […] Except of these local irritations no other toxicity was noted.

Where [3] appears, read: 10 mg/kg (equimolar) ip 1 hr prior, p<0.001 vs controls.
[4] abbreviates: 10 and 30 mg/kg ip ×3/week for 2 weeks, sertraline equimolar.

For the compound `OCCCC#Cc1cc2c(cc1OC[C@@H]1CNCC[C@H]1c1ccc(F)cc1)OCO2` [If], the “sedative effect accompanying the anxiolytic activity” value in the series on BALB/c mice [1] (orally 90 min prior) is on record as “not accompanied by a sedative effect”.
For the compound `CN[C@H]1CC[C@@H](c2ccc(Cl)c(Cl)c2)c2ccccc21` [sertraline, reference compound], the “total time spent in the center (areas 2+3)” value in the series on BALB/c mice [1] (10 mg/kg (equimolar) ip 1 hr prior) was “significantly increase”. In addition, the “frequency to the center” value with BALB/c mice [1] (10 mg/kg (equimolar) ip 1 hr prior, controls 1.23) stood at 1.27. In the series with BALB/c mice [1] (setting [3]), the distance moved result is “significantly increase” and the velocity entry is recorded as “significantly increase”. Further, the “latency to heat sensation” value in the series on BALBc male mice is recorded as “significantly increase”. Moreover, in the series on BALB/c mice [2], the “muscle strength and basic motor activity” value is “did not modify”. In the series with ICR male mice (setting [4]), the “body weight gain versus controls” value is “no difference” and the chemistry blood picture result was “did not show a significant change”. The “histopathology of heart, spleen, liver and kidney” value in the series on ICR male mice (high dose of 30 mg/kg ip, subchronic, capsule of the abdominal organs) is given as “minimal to mild irritation”.
